In the assay the target is T1, CXCR4 (Homo sapiens, UniProt P61073).
T1 construct: Nanoluc-CXCR4
In words: NanoBRET competition binding against CXCL12-AF647 in transfected HEK293T cells; anti-IFN effect lost with CXCR4 siRNA. Type of assay: cell-based. In general terms: In BRET a luciferase serves as donor, and the signal depends on an acceptor being close.

As usually defined, the Ki is a measure of affinity in units of concentration, obtained from inhibition or displacement. Read a low Ki as higher affinity.

T1 sequence (P61073 whole entry): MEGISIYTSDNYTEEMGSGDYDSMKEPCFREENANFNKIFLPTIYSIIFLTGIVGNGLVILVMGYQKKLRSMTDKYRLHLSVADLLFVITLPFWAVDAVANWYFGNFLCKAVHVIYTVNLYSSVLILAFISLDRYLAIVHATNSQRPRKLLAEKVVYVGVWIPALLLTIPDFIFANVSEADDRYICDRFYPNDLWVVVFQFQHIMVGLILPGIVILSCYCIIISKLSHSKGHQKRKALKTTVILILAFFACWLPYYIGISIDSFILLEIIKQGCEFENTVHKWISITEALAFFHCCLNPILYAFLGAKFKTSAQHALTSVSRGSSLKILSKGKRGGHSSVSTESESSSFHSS

`NC(=NCc1ccc(Cl)cc1)SCCCc1cnc[nH]1` [CB, clobenpropit] showed a Ki of 18.6 µM.

Values taken from article PMC11682962, “The histamine analogue clobenpropit modulates IRF7 phosphorylation and interferon production by targeting CXCR4 in systemic lupus erythematosus models” (Frontiers in Immunology, 2024).
